The supplement of paper PMC8633005

How the values were obtained:
Assay in all cases: drug sensitivity score (DSS) (DSS (unitless, 0-50 scale)); higher = more sensitive (stronger viability inhibition); extreme values may be limits of the assay
Settings in all cases: 72 h; culture: 2D
FM-MEL-3 = test system: FM-MEL-3
In short: (§1)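 Patient-derived melanoma cultures and melanoma cell lines were grown in 2D in 384-well plates with a 527-compound oncology library at five concentrations spanning a 10,000-fold range, with 1000–1500 cells per well for the cultures. CellTiter-Glo luminescence gave viability after 72 h at 37 °C. The drug sensitivity score is a modified area-under-curve measure derived from dose-response curves fitted in the in-house Breeze software.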

WM165 = test system: WM165
In short: as §1

FM-MEL-2 = test system: FM-MEL-2
In short: as §1

SK-MEL-2 = test system: SK-MEL-2
In short: as §1

Bowes = test system: Bowes
In short: as §1

FM-MEL-6 = test system: FM-MEL-6
In short: as §1

SK-MEL-28 = test system: SK-MEL-28
In short: as §1

WM852 = test system: WM852
In short: as §1

Row | Compound | drug sensitivity score (FM-MEL-3) | drug sensitivity score (WM165) | drug sensitivity score (FM-MEL-2) | drug sensitivity score (SK-MEL-2) | drug sensitivity score (Bowes) | drug sensitivity score (FM-MEL-6) | drug sensitivity score (SK-MEL-28) | drug sensitivity score (WM852)
1 | CCN(CC)CCN(Cc1ccc(-c2ccc(C(F)(F)F)cc2)cc1)C(=O)Cn1c(SCc2ccc(F)cc2)nc(=O)c2c1CCC2 [Darapladib] | 0 | 0 | 0.8 | 0.2 | 0 | 0.4 | 0.4 | 0
2 | Cc1nc(Nc2ncc(C(=O)Nc3c(C)cccc3Cl)s2)cc(N2CCN(CCO)CC2)n1 [Dasatinib] | 0 | 5.3 | 0 | 0 | 1.9 | 0 | 3.4 | 0.1
3 | COc1cccc2c1C(=O)c1c(O)c3c(c(O)c1C2=O)C[C@@](O)(C(C)=O)C[C@@H]3O[C@H]1C[C@H](N)[C@H](O)[C@H](C)O1 [Daunorubicin] | 8.3 | 13.4 | 6.8 | 4.7 | 4.5 | 7.4 | 7.2 | 4.6
4 | CC[C@@](C)(Nc1ccnc(-c2c[nH]c3ncccc23)n1)C(=O)NCC(F)(F)F [Decernotinib] | 0 | 0 | 0.2 | 0 | 0 | 0 | 0.3 | 0
5 | Nc1ncn([C@H]2C[C@H](O)[C@@H](CO)O2)c(=O)n1 [Decitabine] | 0 | 0.7 | 0 | 0 | 0 | 3.4 | 0 | 0
6 | CC(=O)N(O)CCCCCNC(=O)CCC(=O)N(O)CCCCCNC(=O)CCC(=O)N(O)CCCCCN [Deferoxamine] | 0 | 3.8 | 0.6 | 0 | 2.9 | 1.8 | 0.9 | 4.9
7 | C[C@@H]1C[C@H]2[C@@H]3CCC4=CC(=O)C=C[C@]4(C)[C@@]3(F)[C@@H](O)C[C@]2(C)[C@@]1(O)C(=O)CO [Dexamethasone] | 0 | 0 | 0 | 0 | 0 | 0 | 0 | 0
8 | C[C@H]1O[C@@H](O[C@H]2[C@@H](O)C[C@H](O[C@H]3[C@@H](O)C[C@H](O[C@H]4CC[C@@]5(C)[C@H](CC[C@@H]6[C@@H]5C[C@@H](O)[C@]5(C)[C@@H](C7=CC(=O)OC7)CC[C@]65O)C4)O[C@@H]3C)O[C@@H]2C)C[C@H](O)[C@@H]1O [Digoxin] | 13.3 | 10.6 | 3.3 | 5.9 | 12.9 | 9.7 | 6.6 | 10.4
9 | CCc1cnn2c(NCc3ccc[n+]([O-])c3)cc(N3CCCC[C@H]3CCO)nc12 [Dinaciclib] | 18.5 | 22.4 | 13.1 | 21.2 | 30.7 | 21.7 | 20.2 | 20
10 | CC(=O)O[C@@]12CO[C@@H]1C[C@H](O)[C@@]1(C)C(=O)[C@H](O)C3=C(C)[C@@H](OC(=O)[C@H](O)[C@@H](NC(=O)OC(C)(C)C)c4ccccc4)C[C@@](O)([C@@H](OC(=O)c4ccccc4)[C@H]21)C3(C)C [Docetaxel] | 10.9 | 25.1 | 6.5 | 16.4 | 28.8 | 14.7 | 12.7 | 20.7
11 | Cc1ccc(-n2nc(C(C)(C)C)cc2NC(=O)Nc2ccc(OCCN3CCOCC3)c3ccccc23)cc1 [Doramapimod] | 1.7 | 3.4 | 1.4 | 0 | 0 | 0.8 | 0 | 0
12 | CN1CCN(c2ccc3nc(-c4c(N)c5c(F)cccc5[nH]c4=O)[nH]c3c2)CC1 [Dovitinib] | 0 | 0.3 | 0 | 0 | 0.5 | 0 | 0 | 0
13 | COc1cccc2c1C(=O)c1c(O)c3c(c(O)c1C2=O)C[C@@](O)(C(=O)CO)C[C@@H]3O[C@H]1C[C@H](N)[C@H](O)[C@H](C)O1 [Doxorubicin] | 6.8 | 15.1 | 6.7 | 4.9 | 4.2 | 7.8 | 7.8 | 4.8
14 | C[C@H](Nc1ncnc2nc[nH]c12)c1cc2cccc(Cl)c2c(=O)n1-c1ccccc1 [Duvelisib] | 0 | 0 | 2.3 | 0 | 0 | 0 | 1.3 | 0
15 | Cc1ccc(NS(=O)(=O)c2cccc(C#N)c2)c2[nH]cc(C#N)c12 [E7820] | 5.5 | 5.3 | 1.9 | 0 | 0 | 0.7 | 0 | 0
16 | Cc1cc(Nc2cc(N3CCN(C)CC3)nc(/C=C/c3ccccc3)n2)n[nH]1 [ENMD-2076] | 7.8 | 12.6 | 7.6 | 8.9 | 11.1 | 6.4 | 7.9 | 7.5
17 | Cc1cc(C)c(CNC(=O)c2cc(-c3ccc(CN4CCOCC4)cc3)cc3c2cnn3C2CCCC2)c(=O)[nH]1 [EPZ-5687] | 2.8 | 0 | 0 | 0 | 2.6 | 0.5 | 0 | 0
18 | NC(=O)/C(=C/n1cnc(-c2cc(C(F)(F)F)cc(C(F)(F)F)c2)n1)c1cncnc1 [Eltanexor] | 18.4 | 19.3 | 9.5 | 15.2 | 14.8 | 11.8 | 14 | 11.2
19 | CC(C)(O)CNc1nc(Nc2ccnc(C(F)(F)F)c2)nc(-c2cccc(C(F)(F)F)n2)n1 [Enasidenib] | 0 | 0 | 3.1 | 1.9 | 0 | 0 | 0 | 0

Row | Compound | drug sensitivity score (FM-MEL-3) | drug sensitivity score (WM165) | drug sensitivity score (FM-MEL-2) | drug sensitivity score (SK-MEL-2) | drug sensitivity score (Bowes) | drug sensitivity score (FM-MEL-6) | drug sensitivity score (SK-MEL-28) | drug sensitivity score (WM852)
20 | COC(=O)N[C@@H](C)CNc1nccc(-c2cn(C(C)C)nc2-c2cc(Cl)cc(NS(C)(=O)=O)c2F)n1 [Encorafenib] | 1.9 | 19.2 | 1.3 | 1.1 | 0.5 | 0 | 19.6 | 1.4
21 | C[C@@H]1CN(C(=O)c2ccc(NC(=O)c3cc(O[C@H](C)c4c(Cl)ccc(F)c4Cl)c(N)nn3)cc2)C[C@H](C)N1 [Ensartinib] | 2.6 | 0.7 | 0.5 | 0 | 1.6 | 1.5 | 0 | 0.4
22 | Nc1ccccc1NC(=O)c1ccc(CNC(=O)OCc2cccnc2)cc1 [Entinostat] | 6.6 | 11.4 | 4.5 | 7.9 | 1.8 | 8.2 | 8.7 | 0.1
23 | c1cn2cc(-c3ccc4cn[nH]c4c3)nc(Nc3ccc(N4CCOCC4)cc3)c2n1 [Entospletinib] | 0 | 0 | 6.7 | 0 | 0 | 0 | 0 | 0
24 | CN1CCN(c2ccc(C(=O)Nc3n[nH]c4ccc(Cc5cc(F)cc(F)c5)cc34)c(NC3CCOCC3)c2)CC1 [Entrectinib] | 0 | 0 | 0 | 0 | 0 | 0 | 0 | 0
25 | CNC(=O)c1ccc(N2C(=S)N(c3ccc(C#N)c(C(F)(F)F)c3)C(=O)C2(C)C)cc1F [Enzalutamide] | 0.3 | 0 | 0.2 | 0 | 0.1 | 0 | 0 | 0.9
26 | Cn1cc(C2=C(c3cn(C4CCN(Cc5ccccn5)CC4)c4ccccc34)C(=O)NC2=O)c2ccccc21 [Enzastaurin] | 3.7 | 0 | 1.7 | 0.2 | 0 | 0 | 0 | 2.1
27 | NS(=O)(=O)NCCNc1nonc1/C(=N/O)Nc1ccc(F)c(Br)c1 [Epacadostat] | 1 | 0 | 0.5 | 0 | 0 | 0.5 | 0 | 0.7
28 | COc1cccc2c1C(=O)c1c(O)c3c(c(O)c1C2=O)C[C@@](O)(C(=O)CO)C[C@@H]3O[C@H]1C[C@H](N)[C@@H](O)[C@H](C)O1 [Epirubicin] | 7.6 | 14.3 | 6 | 5.3 | 4 | 8.6 | 7.4 | 4.6
29 | CCOc1ccccc1-n1c(C(C)N2CCN(C(=O)COc3ccc(Cl)cc3)CC2)nc2ccccc2c1=O (stereo unspecified) [Erastin] | 5.8 | 10.8 | 7.6 | 1.3 | 6.2 | 0 | 0 | 12
30 | COc1cc(OC)cc(N(CCNC(C)C)c2ccc3ncc(-c4cnn(C)c4)nc3c2)c1 [Erdafitinib] | 0 | 0 | 0 | 0 | 2.4 | 0 | 0 | 0.8
31 | C=C1C[C@@H]2CC[C@@]34C[C@H]5O[C@H]6[C@@H](O3)[C@H]3O[C@H](CC[C@@H]3O[C@H]6[C@H]5O4)CC(=O)C[C@@H]3[C@@H](OC)[C@@H](C[C@H](O)CN)O[C@H]3C[C@H]3O[C@@H](CC[C@@H]1O2)C[C@@H](C)C3=C [Eribulin] | 9.4 | 22.5 | 4.8 | 20.4 | 23.6 | 18.5 | 11.2 | 22.8
32 | C#Cc1cccc(Nc2ncnc3cc(OCCOC)c(OCCOC)cc23)c1 [Erlotinib] | 3.5 | 3.9 | 4.4 | 0 | 1.8 | 1.9 | 1.1 | 2.5
33 | COc1cc([C@@H]2c3cc4c(cc3[C@@H](O[C@@H]3O[C@@H]5CO[C@@H](C)O[C@H]5[C@H](O)[C@H]3O)[C@H]3COC(=O)[C@H]23)OCO4)cc(OC)c1O [Etoposide] | 4 | 19.1 | 2.9 | 2.6 | 2.7 | 5.7 | 5.9 | 0.4
34 | CO[C@H]1C[C@@H]2CC[C@@H](C)[C@@](O)(O2)C(=O)C(=O)N2CCCC[C@H]2C(=O)O[C@H]([C@H](C)C[C@@H]2CC[C@@H](OCCO)[C@H](OC)C2)CC(=O)[C@H](C)/C=C(\C)[C@@H](O)[C@@H](OC)C(=O)[C@H](C)C[C@H](C)/C=C/C=C/C=C/1C [Everolimus] | 4.7 | 4.9 | 2.2 | 0 | 0 | 3.6 | 3 | 0
35 | C=C1C[C@@H]2[C@H](CC[C@]3(C)C(=O)CC[C@@H]23)[C@@]2(C)C=CC(=O)C=C12 [Exemestane] | 0 | 0.2 | 0 | 0 | 1.4 | 0 | 0 | 0.3
36 | CCn1c(=O)c(-c2ccc(Cl)cc2Cl)cc2cnc(Nc3ccc(N4CCNCC4)c(F)c3)nc21 [FRAX486] | 0 | 7.6 | 0 | 0.5 | 9.7 | 1.9 | 3.2 | 1.4
37 | Cc1cnc(Nc2ccc(OCCN3CCCC3)cc2)nc1Nc1cccc(S(=O)(=O)NC(C)(C)C)c1 [Fedratinib] | 6.7 | 9.1 | 3.6 | 4.5 | 10.9 | 3.1 | 3 | 6.8
